Laboratory results published in ChEMBL document CHEMBL4425156, “The evolution of P2X7 antagonists with a focus on CNS indications” (Bioorg Med Chem Lett, 2016).
pEC50, pIC50: −log10 of the molar value.

Assays:
[1] = Oral bioavailability in dog at 2.5 mg/kg; assay type: ADME, organism-based, Canis lupus familiaris; details: in vivo
[2] = Cmax in dog at 2.5 mg/kg, po; assay type: ADME, organism-based, Canis lupus familiaris; parameters: dose 2.5 mg/kg, route oral; details: in vivo
[3] = system: Rattus norvegicus; assay: Ex vivo inhibition of P2X7 in po dosed rat measured after 1 to 2 hrs by ARG assay; assay type: functional, organism-based
[4] = biological target: Cytochrome P450 3A4 (Homo sapiens, UniProt P08684); assay: Inhibition of CYP3A4 (unknown origin); assay type: ADME
[5] = biological target: T1, P2X purinoceptor 7 (Homo sapiens, UniProt Q99572); assay: Antagonist activity at human P2X7 receptor expressed in HEK293 cells assessed as inhibition of BzATP-induced calcium mobilization monitored for 5 mins followed by stimulation with BzATP measured after 3 mins by Fluo-8 NW dye based tetra FLIPR assay; assay type: cell-based
T1 sequence (Q99572 whole entry): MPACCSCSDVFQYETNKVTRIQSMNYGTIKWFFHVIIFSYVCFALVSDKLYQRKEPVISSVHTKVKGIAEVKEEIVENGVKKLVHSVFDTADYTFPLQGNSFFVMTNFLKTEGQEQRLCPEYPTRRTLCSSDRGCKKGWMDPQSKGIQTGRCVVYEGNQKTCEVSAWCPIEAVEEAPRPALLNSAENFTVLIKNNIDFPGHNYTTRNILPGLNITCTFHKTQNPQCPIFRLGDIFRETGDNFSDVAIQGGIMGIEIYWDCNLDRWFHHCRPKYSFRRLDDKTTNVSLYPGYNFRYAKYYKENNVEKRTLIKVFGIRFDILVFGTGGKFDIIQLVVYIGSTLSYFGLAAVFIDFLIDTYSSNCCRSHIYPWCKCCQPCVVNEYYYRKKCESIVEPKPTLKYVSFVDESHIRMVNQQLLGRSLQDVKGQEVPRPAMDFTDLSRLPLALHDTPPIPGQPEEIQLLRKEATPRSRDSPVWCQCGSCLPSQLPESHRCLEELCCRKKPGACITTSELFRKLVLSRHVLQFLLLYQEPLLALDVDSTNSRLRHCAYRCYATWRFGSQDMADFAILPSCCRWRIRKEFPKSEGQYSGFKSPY

[6] = biological target: T1, P2X purinoceptor 7; assay: Antagonist activity at human P2X7 receptor expressed in THP1 cells assessed as inhibition of BzATP-induced IL-1beta release preincubated for 20 mins followed by stimulation with BzATP for 30 mins by sandwich ELISA; assay type: cell-based
[7] = biological target: T1, P2X purinoceptor 7; assay: Antagonist activity at human P2X7 receptor expressed in HEK293 cells assessed as inhibition of BzATP-induced pore formation incubated for 20 mins followed by stimulation with BzATP for 30 mins by YO-PRO dye based fluorescence plate reader method; assay type: cell-based
[8] = Fraction unbound in rat plasma; assay type: ADME, cell-free
[9] = biological target: T1, P2X purinoceptor 7; assay: Antagonist activity at human recombinant P2X7 receptor expressed in 1321N1 cells assessed as inhibition of BzATP-induced calcium mobilization incubated for 30 mins measured after 180 seconds by calcium-4 dye based FLIPR assay; assay type: cell-based
[10] = biological target: T2, P2X purinoceptor 7 (Rattus norvegicus, UniProt Q64663); assay: Antagonist activity at rat P2X7 receptor expressed in 1321N1 cells assessed as inhibition of BzATP-induced calcium mobilization incubated for 30 mins measured after 180 seconds by calcium-4 dye based FLIPR assay; assay type: cell-based
T2 sequence (Q64663 whole entry): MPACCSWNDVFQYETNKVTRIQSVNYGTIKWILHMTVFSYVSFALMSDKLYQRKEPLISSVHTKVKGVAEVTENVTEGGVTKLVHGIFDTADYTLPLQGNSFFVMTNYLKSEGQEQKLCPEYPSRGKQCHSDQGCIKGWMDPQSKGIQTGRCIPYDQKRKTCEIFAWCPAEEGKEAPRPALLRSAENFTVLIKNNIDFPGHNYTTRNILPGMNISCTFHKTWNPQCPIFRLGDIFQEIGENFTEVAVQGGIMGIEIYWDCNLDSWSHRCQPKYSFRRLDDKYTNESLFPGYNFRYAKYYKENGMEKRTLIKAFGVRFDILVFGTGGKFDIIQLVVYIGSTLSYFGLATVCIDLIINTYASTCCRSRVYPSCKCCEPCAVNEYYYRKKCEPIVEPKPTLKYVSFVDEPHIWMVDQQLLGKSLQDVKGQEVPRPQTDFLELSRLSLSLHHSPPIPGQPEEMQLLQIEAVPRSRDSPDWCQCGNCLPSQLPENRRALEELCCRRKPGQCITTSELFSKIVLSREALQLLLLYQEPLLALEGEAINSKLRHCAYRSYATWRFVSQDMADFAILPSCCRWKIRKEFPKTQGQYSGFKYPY

[11] = Fraction unbound in human plasma; assay type: ADME, cell-free
[12] = biological target: T1, P2X purinoceptor 7; assay: Antagonist activity at human recombinant P2X7 receptor expressed in HEK293 cells assessed as inhibition of ATP-induced calcium mobilization incubated for 90 mins in presence of ATP by YO-PRO-1 dye based tetra FLIPR assay; assay type: cell-based
[13] = Efflux ratio of apparent permeability from basolateral to apical over apical to basolateral side in human Caco2 cells at 10 uM after 40 to 60 mins by LC-MS/MS analysis; assay type: ADME, cell-based; details: Caco-2
[14] = Oral bioavailability in rat at 10 mg/kg; assay type: ADME, organism-based; details: in vivo
[15] = Ratio of drug level in brain to plasma in rat at 10 mg/kg, po; assay type: ADME, organism-based; details: read-out: BPR
[16] = system: Rattus norvegicus; assay: Ex vivo receptor occupancy at P2X7 receptor in rat at 10 mg/kg, po; assay type: functional
[17] = biological target: T1, P2X purinoceptor 7; assay: Antagonist activity at human P2X7 receptor expressed in HEK293 cells assessed as inhibition of BzATP-induced calcium mobilization incubated for 30 mins by Fluo-4 NW dye based tetra FLIPR assay; assay type: cell-based

Chain of Cytochrome P450 3A4 (P08684 whole entry): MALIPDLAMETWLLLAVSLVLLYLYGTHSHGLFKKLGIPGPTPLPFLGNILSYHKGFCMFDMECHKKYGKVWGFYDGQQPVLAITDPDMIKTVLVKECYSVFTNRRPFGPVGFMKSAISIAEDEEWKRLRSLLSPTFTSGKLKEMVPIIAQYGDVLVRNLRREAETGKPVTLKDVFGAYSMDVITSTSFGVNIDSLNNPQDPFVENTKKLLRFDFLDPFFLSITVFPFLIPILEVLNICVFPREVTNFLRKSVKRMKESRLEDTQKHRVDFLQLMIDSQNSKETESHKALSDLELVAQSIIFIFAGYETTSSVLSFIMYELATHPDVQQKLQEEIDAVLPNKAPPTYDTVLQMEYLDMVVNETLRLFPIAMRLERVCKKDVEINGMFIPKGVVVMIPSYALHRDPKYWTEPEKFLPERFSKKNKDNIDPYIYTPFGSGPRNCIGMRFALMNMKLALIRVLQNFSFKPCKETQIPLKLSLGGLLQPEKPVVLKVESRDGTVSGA

pIC50 [9] | pIC50 [10] | efflux ratio at 10 µM [13] | SMILES | other results
– | – | – | Cc1nc2c(c(-c3ccn[nH]3)n1)C[C@@H](C)N(C(=O)c1cccc(C(F)(F)F)c1Cl)C2 | bioavailability [1]: 35%; Cmax [2]: 571 nM; pEC50 [3]: 8.10; pIC50 [4]: 5.48
– | – | – | O=C(NCC(CC1(C(F)F)CC1)c1ccc(C2CC2)nc1)c1cccc(Cl)c1Cl (stereo not drawn) | pIC50 [5]: 9.10
– | – | – | C[C@H]1CC[C@@](O)(CNC(=O)c2cc(C3CCOC3)n3cccc(Cl)c23)CC1 (stereo partly drawn) | pIC50 [6]: > 8.00; pIC50 [7]: > 8.00
– | – | – | CN(C)C(=O)CCNc1ccc2c(C(=O)NCC3CCC(F)(F)CC3)c(Cl)ccc2n1 | pIC50 [6]: > 8.00; pIC50 [7]: > 8.00
8.07 | 5.94 | – | Cc1nc2c(c(-c3ccn[nH]3)n1)CCN(C(=O)c1cccc(C(F)(F)F)c1Cl)C2 | fraction unbound [8]: 0.074
6.62 | – | – | Cc1nc2c(c(-c3ccccc3)n1)CCN(C(=O)c1cccc(C(F)(F)F)c1Cl)C2 | fraction unbound [11]: 0.032
– | – | – | O=C(NCC1(c2ccc(Cl)nc2)CCCCC1)C1CCCc2[nH]ccc21 (stereo not drawn) | pIC50 [12]: 8.47
8.16 | 7.77 | 3.33 | O=C(c1cccc(C(F)(F)F)c1Cl)N1CCn2c(C3CC3)nnc2[C@H]1c1ccccc1 | –
7.96 | – | 2 | CC(C)(C)c1nnc2n1CCN(C(=O)c1cccc(C(F)(F)F)c1Cl)[C@@H]2c1ccccc1 | –
8.06 | 7.38 | 0.75 | O=C(c1cccc(C(F)(F)F)c1Cl)N1CCn2c(nnc2C(F)(F)F)[C@H]1c1ccccc1 | bioavailability [14]: 78%; Kp [15]: 0.5; Occ [16]: >80%
8.57 | 7.57 | 5.1 | Cc1nnc2n1CCN(C(=O)c1cccc(C(F)(F)F)c1Cl)[C@@H]2c1ccccc1 | –
8.07 | 7.70 | 1.22 | CCCCc1nnc2n1CCN(C(=O)c1cccc(C(F)(F)F)c1Cl)[C@@H]2c1ccccc1 | –
– | – | – | O=C(NCC1(c2ccc(Cl)nc2)CCCCC1)c1c(Cl)ccc2[nH]ccc12 | pIC50 [12]: 8.49
– | – | – | O=C(NCC(c1cnc(C(F)(F)F)nc1)N1CCOCC1)c1c(Cl)ccc2[nH]ccc12 (stereo not drawn) | pIC50 [12]: 8.41
7.72 | – | – | Cc1nc2c(c(-c3ccn[nH]3)n1)C[C@@H](C)N(C(=O)c1ccc(Cl)cc1F)C2 | pEC50 [3]: 7.00; pIC50 [4]: < 5.00
8.62 | – | 3.24 | CCc1nnc2n1CCN(C(=O)c1cccc(C(F)(F)F)c1Cl)[C@@H]2c1ccccc1 | –
– | – | – | Cc1ncc(C(CNC(=O)c2cc(-c3ncc(F)cn3)ccc2Cl)N2CCCC(F)(F)C2)s1 (stereo not drawn) | pIC50 [17]: 7.66
8.35 | 7.19 | 4.5 | O=C(c1cccc(C(F)(F)F)c1Cl)N1CCn2cnnc2[C@H]1c1ccccc1 | –
